{"source": "patent US9604987B2", "about": "“Synthesis of autophagy inducing compound and the uses thereof” (Hong Kong Baptist University, priority 2012, dated 2017)", "key": {"[1]": {"test_system": "α-syn (WT, A53T, A30P) in N2a cells", "experiment": "Clearance of over-expressed WT and mutant α-syn in N2a cells (western blot)", "assay_type": "cell-based, mouse", "protocol": "Native and denatured PAGE and Western blotting analysis. Samples to be run under denaturing conditions were lysed with RIPA lysis buffer (150 mM NaCl, 50 mM Tris-HCl, 0.35% sodium deoxycholate, 1 mM EDTA, 1% NP40, 1 mM PMSF, 5 μg/ml aprotinin, 5 μg/ml leupeptin). Samples for native gels were lysed with detergent-free lysis buffer (50 mM Tris/HCl pH 7.4, 175 mM NaCl, 5 mM EDTA pH 8.0, 1 mM PMSF, 5 μg/ml aprotinin, 5 μg/ml leupeptin), and sheared 5 times through a 28-gauge needle followed by 2 times of sonication for 5 seconds according to previously described protocol. For denaturing, SDS-PAGE was performed using Tris-Glycine SDS running buffer and SDS sample buffer, and for native conditions, native-PAGE was run with detergent-free Tris-Glycine running buffer (BN2007, Invitrogen) and 4× native sample buffer (BN2003, Invitrogen) on a pre-casted native PAGE gel (BN1002BOX, Invitrogen). The proteins on the gels were then transferred to PVDF membrane (RPN303F, GE Healthcare) and processed for immunoblotting. Membranes were blocked with 5% non-fat milk and probed with the appropriate primary and secondary antibodies. The desired bands were visualized using the ECL kit (32106, Pierce). The band density was quantified using the ImageJ program and normalized to that of the control group.\nN2a cells over-expressed in WT and α-syn mutants (A53T and A30P) and N2a cells with GFP as negative control are subjected to Cory B treatment for 24 hours. […] Data presents as the mean±SEM from 3 independent experiments (*p<0.05, one-way ANOVA for multiple comparison and Tukey's test as post hoc test)."}, "N2a Swedish APP cells": {"test_system": "N2a Swedish APP cells", "experiment": "APP reduction in N2a Swedish APP cells (western blot)", "assay_type": "cell-based, mouse", "conditions": "different concentrations, with or without CQ and 3MA", "protocol": "N2a Swedish APP cells are incubated with different concentration of Cory and Cory B in the presence or absence of CQ and 3MA. […] Tg2567 APP mice, 3 months old JNPL P301 Tau mice and WT mice intraperitoneally are administrated with 20 mg/kg/d CoryB."}, "[2]": {"test_system": "WT and A53T α-syn in differentiated DA neurons", "experiment": "α-syn degradation in human dopaminergic neurons differentiated from embryonic stem cells", "assay_type": "cell-based", "excerpt": "Differentiation of stem cells into dopaminergic neurons. The human embryonic stem (ES) cells were differentiated into dopaminergic neurons according to a previously described protocol with minor changes. Initially, ES cells were digested with dispase (17105041, Invitrogen,) and broken into smaller clusters to form the embryonic bodies. The next day, undifferentiated floating ES cell aggregates were transferred to a new flask. The cells were maintained in DMEM/F12 medium (11320082, Invitrogen) with half medium changed every day for 3 days. On the fourth day, ES cell aggregates were collected by centrifuge and re-suspended in NSM (DMEM/F12 containing 1% N2 supplement (17502048, Invitrogen), 1 μg/ml Heparin (H3149, Sigma), 200 μM NEAA (11140050, Invitrogen) and 2 mM L-glutamine (25030081, Invitrogen)) supplemented with 10% FBS. Embryonic stem cells were transferred to a new flask and medium was changed every other day. Three days later, cell aggregates were transferred to 6-well-plates. The next day, the FBS containing media were replaced with NSM containing 20 ng/ml FGF8 (PHG0184, Invitrogen) and 100 ng/ml SHH (PMC2095, Invitrogen), media were changed every other day. Five days later, the colonies in the dish were detached by pipetting gently with a P1000 pipette. […]"}, "Inducible PC12 cells": {"test_system": "Inducible PC12 cells", "experiment": "HMGB1 translocation and autophagy in alpha-synuclein inducible PC12 cells", "assay_type": "cell-based, rat", "conditions": "α-syn overexpression induced by Dox, 24 h", "protocol": "Inducible PC12 cells are treated with […] Dox for 24 h in the presence of Corynoxine B (Cory B), rapamycin (Rap), wortmannin (Wort) or chloroquine (CQ). The expressions of induced HA-α-syn, endogenous LC3-II and Beclin-1 are determined by Western blotting (FIG. 10A). The expression of HMGB1 in the cytosolic and nuclear fractions are determined by Western blotting (FIG. 10B). b-actin and Lamin B1 are used as relative loading controls. Data are presented as the mean±SD from three independent experiments. ^#p<0.05 vs. un-induced control; *p<0.05 vs. Dox treatment; **p<0.05 vs. Dox+Cory B treatment."}}, "data": [{"smiles": "CC[C@@H]1CN2CC[C@]3(C(=O)Nc4ccccc43)C2C[C@@H]1C(=COC)C(=O)OC", "note": "(stereo partly drawn) [Cory B, Corynoxine B]", "values": [{"measurement": "α-syn pro-clearance activity under 3-MA and CQ", "setting": "[1]; 5 mM 3-MA and 30 μM CQ", "value": "abolish pro-clearance activity"}, {"measurement": "WT and mutant α-syn levels", "setting": "[1]; N2a over-expressing WT, A53T, A30P α-syn, 24 hours", "value": "reduces WT and mutant α-syn levels in a dose-dependent manner"}, {"measurement": "GFP levels (negative control protein)", "setting": "[1]; N2a with GFP, 24 hours", "value": "does not reduce GFP levels"}, {"measurement": "full length and CTF APP", "setting": "N2a Swedish APP cells", "value": "dose-dependently reduce both full length and CTF APP"}, {"measurement": "WT and A53T α-syn levels", "setting": "[2]", "value": "dramatically decreases both WT and A53T α-syn levels"}, {"measurement": "cytosolic translocation of HMGB1 and autophagy", "setting": "Inducible PC12 cells", "value": "restored the deficient cytosolic translocation of HMGB1 and autophagy"}]}]}
